Patent publication US10322112B2, “Compound combinations for attenuation of bacterial virulence” (priority 2016, dated 2019)
Values joined by “and” are separate entries in the source; they are usually repeats but may differ in a detail not shown here. Equal values may be shown once.

Columns and labels:
RhlR [1] = target: T1, RhlR (Pseudomonas aeruginosa, UniProt P54292); experiment: E. coli reporter gene antagonism assay, RhlR; format: cell-based
T1 construct: expressed in transfected cells; host or cells: E. coli JLD271
Experimental: (§1) Percent agonism of a given non-native inducer in a given bacterium and QS system receptor is measured with resepct to the maximum level of agonism (activation) by the native ligand of that receptor in the given bacterium. Percent antagonism is measured in competitive assays. The QS system of interest is activated to 100% with added or endogenous native ligand and the % antagonism of the non-native inducer is assessed with respect to 100% activation by the native inducer. The native ligand which induces LasR is OdDHL, which induces RhlR is BHL and which induces PqsR is PQS. As described herein and in cited references, assays for assessment of % agonism or % atangonism may be performed in E. coli systems (heterologous) or in the bacterium of interest, e.g., Pseudomonas. Dependent upon the assay system employed native ligand may be endogenously present or it may be exogenously supplied to the assay system. […] In antagonism assays using the native strains with functional QS systems, e.g., those of P. aeruginosa, endogenous native ligand is made in the system, so no native ligand is added. In native strains having one or more non-functional QS systems (mutant strains), e.g., P. aeruginosa mutants with non-functional QS systems, native ligand is added at about 10-100× the EC50 of the native ligand. In the agonism assay, native ligand is added as a control. Details of the assays are provided herein in Example 9 and in references cited in Example 9.

RhlR [2] = target: T1, RhlR; experiment: P. aeruginosa reporter assay, RhlR antagonism; format: cell-based
Experimental: P. aeruginosa reporter assays: Primary assays for RhlR activity in P. aeruginosa were performed as previously reported for LasR, [33] with the following modifications: OdDHL was added to the subculture to a final concentration of 100 nm immediately before it was dispensed into plates to induce expression of RhlR. For RhlR antagonism assays, synthetic ligand (100 mm) was screened against BHL at its EC50 (30 mm). For RhlR agonism assays, synthetic ligand (100 mm) was screened alongside and compared to BHL (at 900 mm) for the system. Dose-response reporter gene assays were performed according to these protocols by using various concentrations of compound.

LasR = target: T2, LasR (Pseudomonas aeruginosa, UniProt P25084); experiment: E. coli reporter gene primary antagonism assay, LasR; format: cell-based; settings: compounds at 100 mm against 2 nm OdDHL; E. coli beta-galactosidase reporter strain JLD271/pJN105L/pSC11; untreated culture = 100%; negative values indicate receptor agonism; error ±10%
T2 construct: expressed in transfected cells; host or cells: E. coli JLD271
Experimental: as §1

P. aeruginosa (PAO1) [3] = experiment: Pyocyanin assay; format: cell-based, Pseudomonas aeruginosa
Experimental: A. Pyocyanin Assay Protocol. The amount of pyocyanin in P. aeruginosa culture supernatants was measured following a reported protocol (O'Loughlin et al., 2013) with modifications. A 10 mL overnight culture of P. aeruginosa PAO1 was grown for 16 h. DMSO stock solutions of test compounds (20 mM) were prepared, and 10 μL or 5 μL aliquots were added to sterile 15 mL borosilicate glass test tubes. An inoculating culture was prepared by diluting the overnight culture 1:100 into freshly prepared assay medium (see above), and 2 mL aliquots of this subculture were added to each test tube (0.5% DMSO, final). The cultures were grown for 17 h, and the final cell density measured by reading OD600. Relative pyocyanin levels were measured by first pelleting 1.5 mL of well-mixed culture at 4,000 g for 10 min, transferring 200 μL of the resulting supernatant to a clear, plastic 96-well microtiter plate, and reading absorbance at 695 nm. Media background absorbance (measured from a “no bacteria” control) was subtracted, the resulting values growth normalized by dividing by the final OD600378, and the data plotted relative to a DMSO-treated positive control. B. Rhamnolipid Assay Protocol. Rhamnolipid was quantified following a reported protocol (Koch et al., 1991) with modifications. Assay cultures were prepared and grown in an identical manner to the pyocyanin assay above. Aliquots of the final culture supernatant (1 mL) were transferred to 1 dram glass vials and extracted twice with 1 mL diethyl ether. The pooled organic fractions were evaporated to dryness, and the resulting residue reconstituted in 200 μL de-ionized water. In a 1.7 mL plastic centrifuge tube, 50 μL of this extract was diluted into 450 μL of a solution of 0.19% (w/v) orcinol in 50% (v/v) concentrated H2SO4 (or 20 μL extract into 480 μL orcinol solution for cultures grown in MOPS Glucose medium). The tubes were vortexed thoroughly to mix and incubated in an 80° C. heating block for 30 min. After briefly cooling to room temperature, 200 μL of the resulting yellow to yellow-orange solution was transferred to a clear 96-well microtiter plate, and the absorbance at 421 nm measured. Media background absorbance (measured from a “no bacteria” control) was subtracted, the resulting values growth normalized by dividing by the final OD600, and the data plotted relative to a DMSO-treated positive control. C. Elastase B Assay Protocol. The amount of elastase B in P. aeruginosa culture supernatants was measured following a reported protocol (Geske et al., 2007) with modifications. Assay cultures were prepared and grown in an identical manner to the pyocyanin assay above. Aliquots of the final culture supernatant (50 μL) were added to the wells of a clear, plastic 96-well plate. To each well, 150 μL of 0.5% (w/v) elastin-congo red conjugate (Elastin Products Co.) in Tris buffer (10 mM Tris-HCl, 1 mM CaCl2, pH 7.2) was added. The plate was sealed with a polypropylene storage mat (Costar 3080) and incubated in a 37° C. shaking incubator (200 rpm) attached to a Labquake rotator for 12 h (for experiments in SCFM2) or 24 h (for experiments in MOPS medium). To quantify elastase B activity, the undigested elastin was pelleted by centrifugation of the assay plate at 1,500 g for 10 min, after which 100 μL of the supernatant was transferred to a new, clear 96-well plate, and the absorbance at 490 nm measured. Media background absorbance (measured from a “no bacteria” control) was subtracted, the resulting values growth normalized by dividing by the final OD600, and the data plotted relative to a DMSO-treated positive control.

P. aeruginosa (PAO1) [4] = experiment: Rhamnolipid assay; format: cell-based, Pseudomonas aeruginosa; settings: MOPS Glutamate and Glucose media, complete or iron/phosphate depleted, 17 h, 100 μM (compounds 1, 2, 3), 25 μM (compound 4), relative to DMSO
Experimental: (§2) A. Pyocyanin Assay Protocol. The amount of pyocyanin in P. aeruginosa culture supernatants was measured following a reported protocol (O'Loughlin et al., 2013) with modifications. A 10 mL overnight culture of P. aeruginosa PAO1 was grown for 16 h. DMSO stock solutions of test compounds (20 mM) were prepared, and 10 μL or 5 μL aliquots were added to sterile 15 mL borosilicate glass test tubes. An inoculating culture was prepared by diluting the overnight culture 1:100 into freshly prepared assay medium (see above), and 2 mL aliquots of this subculture were added to each test tube (0.5% DMSO, final). The cultures were grown for 17 h, and the final cell density measured by reading OD600. Relative pyocyanin levels were measured by first pelleting 1.5 mL of well-mixed culture at 4,000 g for 10 min, transferring 200 μL of the resulting supernatant to a clear, plastic 96-well microtiter plate, and reading absorbance at 695 nm. Media background absorbance (measured from a “no bacteria” control) was subtracted, the resulting values growth normalized by dividing by the final OD600378, and the data plotted relative to a DMSO-treated positive control. B. Rhamnolipid Assay Protocol. Rhamnolipid was quantified following a reported protocol (Koch et al., 1991) with modifications. Assay cultures were prepared and grown in an identical manner to the pyocyanin assay above. Aliquots of the final culture supernatant (1 mL) were transferred to 1 dram glass vials and extracted twice with 1 mL diethyl ether. The pooled organic fractions were evaporated to dryness, and the resulting residue reconstituted in 200 μL de-ionized water. […] After briefly cooling to room temperature, 200 μL of the resulting yellow to yellow-orange solution was transferred to a clear 96-well microtiter plate, and the absorbance at 421 nm measured. Media background absorbance (measured from a “no bacteria” control) was subtracted, the resulting values growth normalized by dividing by the final OD600, and the data plotted relative to a DMSO-treated positive control. […] The amount of elastase B in P. aeruginosa culture supernatants was measured following a reported protocol (Geske et al., 2007) with modifications. […] To quantify elastase B activity, the undigested elastin was pelleted by centrifugation of the assay plate at 1,500 g for 10 min, after which 100 μL of the supernatant was transferred to a new, clear 96-well plate, and the absorbance at 490 nm measured. Media background absorbance (measured from a “no bacteria” control) was subtracted, the resulting values growth normalized by dividing by the final OD600, and the data plotted relative to a DMSO-treated positive control.

P. aeruginosa (PAO1) [5] = experiment: Elastase B assay; format: cell-based, Pseudomonas aeruginosa; settings: MOPS Glutamate and Glucose media, complete or iron/phosphate depleted, 17 h, 100 μM (compounds 1, 2, 3), relative to DMSO
Experimental: as §2

QscR = QscR (Pseudomonas aeruginosa, UniProt G3XD77); format: cell-based; design: expressed in transfected cells; host or cells: E. coli JLD271; settings: compounds at 100 mm against 15 nm OdDHL; E. coli reporter strain JLD271/pJN105Q/pSC11-Q; untreated culture = 100%; error ±10%
Text: Construction of pSC11-Q: A 348 bp fragment spanning the upstream region of PA1897 (¢304 to +43 relative to the PA1897 translationalstart codon) was amplified from plasmid pJL101*by using primers 5′-GAATAT GGATCC TCTCTC CGCAGA TACCTG-3′ (BamHI site underlined) SEQ ID NO:5 and 5′-GCTATT GAATTC TGAAGA TGAATA GCGCCAC-3′ (EcoRI site underlined) SEQ ID NO:6. The PCR-generated fragment was digested with EcoRI and BamHI and subsequently ligated into EcoRI/BamHI-digested pPROBE-KT to generate pPROBE-KQ2. […] CGCC-3′ (BamHI site underlined) SEQ ID NO:8. The PCR-generated fragment was digested with SalI and BamHI and subsequently ligated into SalI/BamHI-digested pSC11 to generate pSC11-Q.
E. coli reporter gene assays: Primary assays for RhlR, LasR, and QscR activity in E. coli JLD271 reporter (beta-galactosidase) strains were performed as reported by Welsh et al. 2015, with the following modifications:
For all primary and dose-response antagonism assays, the concentration of native ligand utilized was approximately equal to its EC50 value in each bacterial reporter strain. For RhlR, LasR, and QscR primary antagonism assays, synthetic ligand (100 mm) was screened against BHL (10 mm), OdDHL (2 nm), and OdDHL (15 nm), respectively. For RhlR, LasR, and QscR primary agonism assays, synthetic compound (100 mm) was screened alongside and compared to the natural ligand (900 mm BHL or 100 mm OdDHL) for the receptor. As part of the beta-galactosidase assay protocol, plates to which CPRG substrate had been added were incubated at either 25° C. (LasR assay) or 30° C. (RhlR and QscR assays) until positive control wells developed a deep red color (10 min for LasR, 30 min for RhlR, and 60 min for QscR). Dose-response reporter gene assays were performed according to these protocols by using varying concentrations of compound.

T1 sequence (P54292 whole entry): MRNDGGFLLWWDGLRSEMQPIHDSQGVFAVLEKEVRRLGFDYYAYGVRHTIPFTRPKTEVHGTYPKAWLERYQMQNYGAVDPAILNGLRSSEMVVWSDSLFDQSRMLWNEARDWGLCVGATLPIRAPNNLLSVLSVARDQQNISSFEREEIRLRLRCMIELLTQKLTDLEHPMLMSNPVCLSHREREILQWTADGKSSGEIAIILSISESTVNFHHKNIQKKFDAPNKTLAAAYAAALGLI
QscR, sequence (G3XD77 entry or part of it): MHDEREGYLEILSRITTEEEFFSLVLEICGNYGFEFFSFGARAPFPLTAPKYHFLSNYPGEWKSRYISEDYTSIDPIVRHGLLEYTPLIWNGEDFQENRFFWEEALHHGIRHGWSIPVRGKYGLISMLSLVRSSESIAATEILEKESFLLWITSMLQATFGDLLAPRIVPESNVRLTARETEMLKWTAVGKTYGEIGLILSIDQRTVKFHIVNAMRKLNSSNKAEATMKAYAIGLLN
T2 sequence (P25084 whole entry): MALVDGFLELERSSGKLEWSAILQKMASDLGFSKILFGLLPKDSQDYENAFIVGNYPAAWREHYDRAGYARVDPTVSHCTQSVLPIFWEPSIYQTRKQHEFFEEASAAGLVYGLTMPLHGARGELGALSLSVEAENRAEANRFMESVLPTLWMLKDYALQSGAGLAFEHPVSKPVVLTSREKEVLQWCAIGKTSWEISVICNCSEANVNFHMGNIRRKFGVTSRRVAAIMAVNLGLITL

Structure (SMILES) | IC50 (RhlR [1]) | IC50 (RhlR [2]; IC50, antagonism, P. aeruginosa reporter, 95% CI: 19.6 μM-50.4 μM) | concentration blocking native ligand activity by 50%, relative to native ligand EC50 (RhlR [2]; IC50 in P. aeruginosa compared with EC50 of native RhlR ligand) | Inhibition [%] LasR (LasR) | pyocyanin production, single compound screens (P. aeruginosa (PAO1) [3]; MOPS Glutamate and Glucose media, complete or iron/phosphate depleted, 17 h, 100 μM (compounds 1, 2, 3), 25 μM (compound 4), relative to DMSO) | pyocyanin production in SCFM2, single compound (P. aeruginosa (PAO1) [3]; SCFM2, 17 h, 100 μM compound 2 alone) | rhamnolipid production, single compound screens (P. aeruginosa (PAO1) [4]) | elastase B production, single compound screens (P. aeruginosa (PAO1) [5]) | Inhibition [%] QsCR (QscR)
O=C(COc1ccc(I)cc1)N[C@H]1CCSC1=O [RN22] | 19.6 µM | 31.4 µM and 31 µM | less than 4 fold |  |  |  |  |  | 
O=C(COc1ccc(I)cc1)N[C@H]1CCOC1=O [compound 2] |  |  |  | −9% | strong pyocyanin inhibition, unless phosphate concentrations were low | did not attenuate pyocyanin | little to no effect | little to no effect | 18%
